From patent US20220119411A1, “IMMUNOMODULATORS, COMPOSITIONS AND METHODS THEREOF” (BETTA PHARMACEUTICALS CO., LTD, priority 2018, published 2022)

Target: T1, PD-1/PD-L1 protein/protein interaction (Homo sapiens, UniProt Q9NZQ7)
T1 construct: Recombinant human PD-L1 protein (19-238) with a His-tag at the C-terminus; purchased AcroBiosystems PD1-H5229 (PD-L1); PD1-H5257 (PD-1)
Assay: PD-1/PD-L1 homogenous time-resolved fluorescence (HTRF) binding assay
Conditions: recombinant human PD-L1 (19-238)-His 10 nM, human PD-1 (25-167)-Fc 3 nM, 25° C., PBS pH 7.4
Experimental: Resolved Fluorescence (HTRF) Binding Assay
The assays were conducted in a standard black 384-well polystyrene plate with a final volume of 20 μL. Inhibitors were first serially diluted in DMSO and then added to the plate wells before the addition of other reaction components. The final concentration of DMSO in the assay was 1%. The assays were carried out at 25° C. in the PBS buffer (pH 7.4) with 0.05% Tween-20 and 0.1% BSA. Recombinant human PD-L1 protein (19-238) with a His-tag at the C-terminus was purchased from AcroBiosy stems (PD1-H5229). Recombinant human PD-1 protein (25-167) with Fc tag at the C-terminus was also purchased from AcroBiosystems (PD1-H5257). PD-L1 and PD-1 proteins were diluted in the assay buffer and 10 μL was added to the plate well. Plates were centrifuged and proteins were preincubated with inhibitors for 40 min. The incubation was followed by the addition of 10 μL of HTRF detection buffer supplemented with Europium cryptate-labeled anti-human IgG (PerkinElmer-AD0212) specific for Fc and anti-His antibody conjugated to SureLight®—Allophycocyanin (APC, PerkinElmer-AD0059H). After centrifugation, the plate was incubated at 25° C. for 60 min. Before reading on a PHERAstar FS plate reader (665 nm/620 nm ratio). Final concentrations in the assay were—3 nM PD1, 10 nM PD-L1, 1 nM europium anti-human IgG and 20 nM anti-His-Allophycocyanin. IC50 determination was performed by fitting the curve of percent control activity versus the log of the inhibitor concentration using the GraphPad Prism 5.0 software.
Data obtained for the Example compounds using the PD-1/PD-L1 homogenous time-resolved fluorescence (HTRF) binding assay described in Example A is provided in Table 2.

T1 sequence (Q9NZQ7 19-238): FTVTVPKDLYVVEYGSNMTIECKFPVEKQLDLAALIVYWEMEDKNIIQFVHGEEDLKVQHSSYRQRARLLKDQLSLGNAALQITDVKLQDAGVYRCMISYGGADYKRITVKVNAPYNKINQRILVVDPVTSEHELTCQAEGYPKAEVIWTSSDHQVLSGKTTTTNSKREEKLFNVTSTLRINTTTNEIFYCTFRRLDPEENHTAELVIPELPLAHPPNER

Cn1c(C(=O)N2CCCc3c(-c4cccc(OCCN5CCOCC5)c4)cccc32)nc2c1CN(CC(=O)O)CC2 [Example 51, 2-(3-methyl-2-(5-(3-(2-morpholinoethoxy)phenyl)-1,2,3,4-tetrahydroquinoline-1-carbonyl)-3,4,6,7-tetrahydro-5H-imidazo[4,5-c]pyridin-5-yl)acetic acid]
IC50: ≤ 25 nM

Cc1c(OCCCN2CCC(O)C2)cccc1-c1cccc2c1CCN2C(=O)c1nc2c(n1C)CNCC2 (centres unmarked) [Example 39, (4-(3-(3-(3-hydroxypyrrolidin-1-yl)propoxy)-2-methylphenyl)indolin-1-yl)(3-methyl-4,5,6,7-tetrahydro-3H-imidazo[4,5-c]pyridin-2-yl)methanone]
IC50: ≤ 25 nM

O=C(O)CN1CCc2nc(C(=O)N3CCc4c(-c5ccc(NC(=O)CCN6CCC(O)C6)cc5)cccc43)sc2C1 (centres unmarked) [Example 49, 2-(2-(4-(4-(3-(3-hydroxypyrrolidin-1-yl)propanamido)phenyl)indoline-1-carbonyl)-6,7-dihydrothiazolo[5,4-c]pyridin-5(4H)-yl)acetic acid]
IC50: ≤ 25 nM

Cn1c(C(=O)N2CCc3c(-c4cccc5c4CCN5C(=O)CCN4CCC(O)C4)cccc32)nc2c1CN(CC(=O)O)CC2 (centres unmarked) [Example 35, 2-(2-(1′-(3-(3-hydroxypyrrolidin-1-yl)propanoyl)-[4,4′-biindoline]-1-carbonyl)-3-methyl-3,4,6,7-tetrahydro-5H-imidazo[4,5-c]pyridin-5-yl)acetic acid]
IC50: ≤ 25 nM

O=C(O)CN1CCc2nc(C(=O)N3CCc4c(-c5cccc(OCCCN6CCC(O)C6)c5)cccc43)sc2C1 (centres unmarked) [Example 7, 2-(2-(4-(3-(3-(3-hydroxypyrrolidin-1-yl)propoxy)phenyl)indoline-1-carbonyl)-6,7-dihydrothiazolo[5,4-c]pyridin-5(4H)-yl)acetic acid]
IC50: ≤ 25 nM

Cn1c(C(=O)N2CCCc3c(-c4cccc(OCCN5CCOCC5)c4)cccc32)nc2c1CCN(CC(=O)O)C2 [Example 52, 2-(1-methyl-2-(5-(3-(2-morpholinoethoxy)phenyl)-1,2,3,4-tetrahydroquinoline-1-carbonyl)-1,4,6,7-tetrahydro-5H-imidazo[4,5-c]pyridin-5-yl)acetic acid]
IC50: ≤ 25 nM

O=C(c1nc2c(o1)CN(CCO)CC2)N1CCCc2c(-c3cccc(OCCN4CCOCC4)c3)cccc21 [Example 53, (5-(2-hydroxyethyl)-4,5,6,7-tetrahydrooxazolo[5,4-c]pyridin-2-yl)(5-(3-(2-morpholinoethoxy)phenyl)-3,4-dihydroquinolin-1(2H)-yl)methanone]
IC50: 25 to 100 nM

Cc1c(OCCCN2CCC(O)C2)cccc1-c1cccc2c1CCN2C(=O)c1cn2c(n1)CNCC2 (centres unmarked) [Example 41, (4-(3-(3-(3-hydroxypyrrolidin-1-yl)propoxy)-2-methylphenyl)indolin-1-yl)(5,6,7,8-tetrahydroimidazo[1,2-a]pyrazin-2-yl)methanone]
IC50: ≤ 25 nM

O=C(O)CN1CCc2nc(C(=O)N3CCc4c(-c5cccc(OCCCN6CCC(O)C6)c5)cccc43)sc2C1 (centres unmarked) [Example 10, 2-(2-(4-(3-(3-(3-hydroxypyrrolidin-1-yl)propoxy)phenyl)indoline-1-carbonyl)-6,7-dihydrothiazolo[5,4-c]pyridin-5(4H)-yl)acetic acid]
IC50: ≤ 25 nM

O=C(O)CN1CCc2nc(C(=O)N3CCc4c(-c5cccc(CCCN6CCOCC6)c5)cccc43)sc2C1 [Example 17, 2-(2-(4-(3-(3-morpholinopropyl)phenyl)indoline-1-carbonyl)-6,7-dihydrothiazolo[5,4-c]pyridin-5(4H)-yl)acetic acid]
IC50: ≤ 25 nM

O=C(CCN1CCC(O)C1)N1CCc2c(-c3cccc4c3CCN4C(=O)c3cn4c(n3)CNCC4)cccc21 (centres unmarked) [Example 42, 3-(3-hydroxypyrrolidin-1-yl)-1-(1′-(5,6,7,8-tetrahydroimidazo[1,2-a]pyrazine-2-carbonyl)-[4,4′-biindolin]-1-yl)propan-1-one]
IC50: ≤ 25 nM
